Measurements: US20240254114A1, “PREPARATION OF FUSED AZOLE DERIVATIVES AS NOVEL DIACYLGLYCERIDE 0-ACYLTRANSFERASE 2 INHIBITORS” (Merck Sharp & Dohme LLC, priority 2022, published 2024)
Like-named read-outs stand apart in the source and are kept apart here.

Molecular target: human DGAT2 (Homo sapiens (Human), UniProt Q96PD7)
Assay: DGAT2 Enzymatic Activity Assay
Details: 13C18-triolein product by LC/MS/MS
[1] = Human DGAT2 IC50, hDGAT2 membrane prep from Sf-9 cells
[2] = read-out: Human DGAT2 IC50, hDGAT2 membrane prep from Sf-9 cells

Sequence of human DGAT2 (Q96PD7 whole entry): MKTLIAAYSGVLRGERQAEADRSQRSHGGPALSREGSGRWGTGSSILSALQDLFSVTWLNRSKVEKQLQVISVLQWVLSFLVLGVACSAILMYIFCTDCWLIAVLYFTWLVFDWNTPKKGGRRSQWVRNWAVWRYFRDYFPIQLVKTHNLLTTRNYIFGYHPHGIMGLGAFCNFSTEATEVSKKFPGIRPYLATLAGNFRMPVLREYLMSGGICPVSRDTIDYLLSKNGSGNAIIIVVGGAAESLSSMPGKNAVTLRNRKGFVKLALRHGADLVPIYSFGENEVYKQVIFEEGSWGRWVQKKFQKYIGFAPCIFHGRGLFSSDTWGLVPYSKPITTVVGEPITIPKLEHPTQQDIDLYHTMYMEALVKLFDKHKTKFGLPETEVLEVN
Description: Sf-9 insect cells were maintained in Grace's insect cell culture medium with 10% heated-inactivated fetal bovine serum, 1% Pluronic F-68 and 0.14 μg/ml Kanamycine sulfate at 27° C. in a shaker incubator. After infection with untagged baculovirus expressing human DGAT2 (hDGAT2) at multiplicity of infection (MOI) 3 for 48 hours, cells were harvested. Cell pellets were suspended in buffer containing 10 mM Tris-HCl pH 7.5, 1 mM EDTA, 250 mM sucrose and Complete Protease Inhibitor Cocktail (Sigma Aldrich), and sonicated on ice. Cell debris were removed by centrifugation at 2000×g for 15 minutes. Membrane fractions were isolated by ultracentrifugation (100,000×g), resuspended in the same buffer, and frozen (−80° C.) for later use. The protein concentration was determined with the Pierce™ BCA Protein Assay Kit (Thermo Fisher Scientific).
LC/MS/MS analyses were performed using Thermal Fisher's LX4-TSQ Vantage system. This system consists of an Agilent binary high-performance liquid chromatography (HPLC) pump and a TSQ Vantage triple quadrupole MS/MS instrument. For each sample, 2 μL samples from the top organic layer of in-plate liquid-liquid extraction were injected onto a Thermo Betabasic C4 column (2.1 mm×20 mm, 5 μm particle size). The samples were then eluted using the following conditions; mobile phase: Isopropanol: acetonitrile/10 mM ammonium formate=50/35/15 (v/v/v), flow rate: 0.8 mL/min, temperature: 25° C. Data was acquired in positive mode using a heated electrospray ionization (HESI) interface. […] The peak area was integrated by Xcalibur Quan software. The ratio between the ^13C18 triolein generated in the reaction and spiked in internal standard ^13C21-triolein was used to generate percentage inhibition and IC50 values. […] DGAT2 activity was determined by measuring the amount of enzymatic product ^13C18-triolein (^13C-1,2,3-Tri(cis-9-octadecenoyl)glycerol) using the membrane prep mentioned above. The assay was carried out in ABgene 384-well assay plates in a final volume of 25 μL at rt.

Compound | IC50 [1] | IC50 [2]
Cn1c(C(=O)NC2(C)CCS(=O)(=O)CC2)nc2ccc(Oc3ncc(F)cc3OCC(F)F)nc21 [Example 30, 5-((3-(2,2-Difluoroethoxy)-5-fluoropyridin-2-yl)oxy)-3-methyl-N-(4-methyl-1,1-dioxidotetrahydro-2H-thiopyran-4-yl)-3H-imidazo[4,5-b]pyridine-2-carboxamide] | 1.4 nM | –
Cn1c(C(=O)NC2(C)CCS(=O)(=O)CC2)nc2ccc(Oc3ncc(F)cc3OCC(C)(F)F)nc21 [Example 32, 5-[[3-(2,2-difluoropropoxy)-5-fluoro-2-pyridyl]oxy]-3-methyl-N-(4-methyl-1,1-dioxo-thian-4-yl)imidazo[4,5-b]pyridine-2-carboxamide] | – | 236 nM
Cn1c(C(=O)NC2(C)CCS(=O)(=O)CC2)nc2ccc(Oc3ncccc3OCC(F)(F)F)nc21 [Example 34, 3-methyl-N-(4-methyl-1,1-dioxidotetrahydro-2H-thiopyran-4-yl)-5-((3-(2,2,2-trifluoroethoxy)pyridin-2-yl)oxy)-3H-imidazo[4,5-b]pyridine-2-carboxamide] | – | > 109 nM
Cn1c(C(=O)NC2(C)CS(=O)(=O)C2)nc2ccc(Oc3ncccc3OCC(F)(F)F)nc21 [Example 35, 3-methyl-N-(3-methyl-1,1-dioxidothietan-3-yl)-5-((3-(2,2,2-trifluoroethoxy)pyridin-2-yl)oxy)-3H-imidazo[4,5-b]pyridine-2-carboxamide] | – | > 9990 nM
Cn1c(C(=O)NC2(C)CS(=O)(=O)C2)nc2ccc(Oc3ncc(F)cc3OCC(F)F)nc21 [Example 36, 5-[[3-(2,2-difluoroethoxy)-5-fluoro-2-pyridyl]oxy]-3-methyl-N-(3-methyl-1,1-dioxo-thietan-3-yl)imidazo[4,5-b]pyridine-2-carboxamide] | – | 42 nM
Cc1cnc(Oc2ccc3nc(C(=O)NC4(C)CCS(=O)(=O)CC4)n(C)c3n2)c(OCC(F)F)c1 [Example 37, 5-[[3-(2,2-difluoroethoxy)-5-methyl-2-pyridyl]oxy]-3-methyl-N-(4-methyl-1,1-dioxo-thian-4-yl)imidazo[4,5-b]pyridine-2-carboxamide] | – | 29 nM
Cn1c(C(=O)NC2(C)CCS(=O)(=O)CC2)nc2ccc(Oc3nccnc3OCC(F)F)nc21 [Example 38, 5-[3-(2,2-difluoroethoxy)pyrazin-2-yl]oxy-3-methyl-N-(4-methyl-1,1-dioxo-thian-4-yl)imidazo[4,5-b]pyridine-2-carboxamide] | – | 20 nM

Second part, the compound after the results:

IC50 [1] | IC50 [2] | Compound
1.5 nM | – | Cn1c(C(=O)NC2(C)CCS(=O)(=O)CC2)nc2cc(F)c(Oc3ncc(Cl)cc3OCC(F)F)nc21 [Example 41, 5-((5-chloro-3-(2,2-difluoroethoxy)pyridin-2-yl)oxy)-6-fluoro-3-methyl-N-(4-methyl-1,1-dioxidotetrahydro-2H-thiopyran-4-yl)-3H-imidazo[4,5-b]pyridine-2-carboxamide]
– | 2.2 nM | Cn1c(C(=O)NC2(C)CCS(=O)(=O)CC2)nc2cc(F)c(Oc3ncc(F)cc3OCC(F)(F)F)nc21 [Example 42, 6-fluoro-5-((5-fluoro-3-(2,2,2-trifluoroethoxy)pyridin-2-yl)oxy)-3-methyl-N-(4-methyl-1,1-dioxidotetrahydro-2H-thiopyran-4-yl)-3H-imidazo[4,5-b]pyridine-2-carboxamide]
– | 34 nM | Cn1c(C(=O)NC2(C)CCS(=O)(=O)CC2)nc2cc(F)c(Oc3ncc(F)cc3OCC(C)(F)F)nc21 [Example 43, 5-[[3-(2,2-difluoropropoxy)-5-fluoro-2-pyridyl]oxy]-6-fluoro-3-methyl-N-(4-methyl-1,1-dioxo-thian-4-yl)imidazo[4,5-b]pyridine-2-carboxamide]
86 nM | – | Cn1c(C(=O)NC2(C)CCS(=O)(=O)CC2)nc2cc(Cl)c(Oc3ncc(Cl)cc3OCC(F)F)nc21 [Example 44, 6-chloro-5-((5-chloro-3-(2,2-difluoroethoxy)pyridin-2-yl)oxy)-3-methyl-N-(4-methyl-1,1-dioxidotetrahydro-2H-thiopyran-4-yl)-3H-imidazo[4,5-b]pyridine-2-carboxamide]
